Assay results reported in patent publication US5552156A, “Liposomal and micellular stabilization of camptothecin drugs” (Ohio State University, priority 1995, dated 1996).
“Also recorded” adds a separate entry of the source.

Experiments:
Type in all cases: physicochemical
[1] = Overall association constant by fluorescence anisotropy titration, DMPC liposomes; conditions: for overall association constant K, DMPC: DMPC (electroneutral, fluid phase), PBS, 37° C.; for bound drug level, DMPC: DMPC liposomes, 0.29M lipid, estimated; for binding affinity for liposomes (ranking): each type of liposome
Protocol: (§1) While the spectral changes provide qualitative evidence that the camptothecin drugs bind the liposome membranes, fluorescence anisotropy titration, offers the most sensitive means for quantitatively assessing the extent of the binding. The fluorescence anisotropy titration was performed according to the method of Burke and Tritton, Biochemistry 24: 1768-1776 (1985).
(§2) The concentrations of free camptothecin drugs and camptothecin drugs associated with liposomes were determined at various lipid concentrations. All experiments were conducted in glass tubes pretreated with a silating agent, Surfacil, from Pearce Chemical, Rockford, Ill. The titration was conducted at camptothecin drug concentration of 1×10^-6 M in PBS at 37° C. Anisotropy values at each lipid concentration were determined within less than 30 seconds following the addition of the camptothecin drugs to the liposome suspension. The (a) values were determined for fixed drug concentration, typically 2 μM, while the lipid concentration was varied from 0 to 0.29M. By varying the lipid concentration rather than varying the drug concentration, the problem of self-association phenomenon which occurs for camptothecin drugs concentrations in excess of 10 μM is avoided. Also, the well-known phenomenon known as inner filter effect which occurs using fluorescent material at high optical densities is a is avoided.
(§3) Adsorption isotherms like those shown in FIGS. 4A and 4B were used to determine overall association constants for the camptothecin drugs. Overall association constants are defined as: […]
(§4) where [AB ] represents the concentration of the camptothecin drug bound to the vesicle membrane, [AF ] represents the concentration of free drug, and [L] represents the total lipid concentration in the liposome suspension. This equation is valid when the concentration of free lipid is approximately equal to the concentration of total lipid, that is, the concentration of free lipid is in great excess over the concentration of bound drug. Provided this concentration is satisfied, K may be determined from the inverse of the slope of a double reciprocal plot according to (Burke and Tritton, Biochemistry 24:1776, 1985). In such a plot, 1/bound fraction of the total camptothecin drug is plotted vs. 1/[lipid], with a y-intercept value of 1.
FIG. 6A is the double-reciprocal plot for the associations of CMC, camptothecin, camptothecin carboylate sodium salt and topotecan with DMPC at 37° C.
(§5) The stabilization of camptothecin drugs was determined using different lipids. Three types of lipids (and thus 3 types of membranes) were examined: fluid-phase and electroneutral L-α-dimyristoylphosphatidylcholine (DMPC); fluid-phase and negatively-charged L-α-dimyristoylphosphatidylglycerol (DMPG), and solid-phase and electroneutral L-α-distearoylphosphatidylcholine (DSPC). While DMPC and DMPG have identical chain length, the charge on their head groups differ. DMPC and DSPC have identical head groups, but DMPC has acyl chains having 14 carbons per chain, which are four carbons shorter than the DSPC, which has 18 carbons per chain. This difference of 4-carbon chain length results in DMPC being fluid-phase at 37° C. while DSPC is solid-phase. The 7 camptothecin drugs listed in Table III were combined with liposomes containing the above lipids.
FIGS. 4A and 4B show the extent of camptothecin drug binding to liposomes as a function of lipid concentration for DMPC and DMPG liposomes. DMPC liposomes were made as in Example 1, at lipid concentrations from 0 to 0.29M, using CMC, 10-hydroxycamptothecin, 10,11-methylenedioxy-camptothecin, topotecan, camptothecin, and camptothecin carboxylate sodium salt, as shown in FIG. 4B. DMPG liposomes were made as in Example 2, at lipid concentrations from 0 to 0.29M, using 9-chloro-10,11-methylenedioxycamptothecin CMC, 10,11-methylenedioxycamptothecin, camptothecin, and topotecan, 9-aminocamptothecin, as shown in FIG. 4A. […]

[2] = Overall association constant by fluorescence anisotropy titration, DMPG liposomes; conditions: for overall association constant K, DMPG: DMPG (negatively charged, fluid phase), PBS, 37° C.; for bound drug level, DMPG: DMPG liposomes, 0.29M lipid, estimated
Protocol: as §1, §2, §3, §4, §5
FIGS. 4A and 4B show the extent of camptothecin drug binding to liposomes as a function of lipid concentration for DMPC and DMPG liposomes. DMPC liposomes were made as in Example 1, at lipid concentrations from 0 to 0.29M, using CMC, 10-hydroxycamptothecin, 10,11-methylenedioxy-camptothecin, topotecan, camptothecin, and camptothecin carboxylate sodium salt, as shown in FIG. 4B. DMPG liposomes were made as in Example 2, at lipid concentrations from 0 to 0.29M, using 9-chloro-10,11-methylenedioxycamptothecin CMC, 10,11-methylenedioxycamptothecin, camptothecin, and topotecan, 9-aminocamptothecin, as shown in FIG. 4A. The lipid concentration […] of the data using double-reciprocal plots gave identical overall association/binding constants of 100M^-1.

[3] = Overall association constant by fluorescence anisotropy titration, DSPC liposomes; conditions: for overall association constant K, DSPC: DSPC (electroneutral, solid phase), PBS, 37° C.
Protocol: The concentrations of free camptothecin drugs and camptothecin drugs associated with liposomes were determined at various lipid concentrations. […] The titration was conducted at camptothecin drug concentration of 1×10^-6 M in PBS at 37° C. Anisotropy values at each lipid concentration were determined within less than 30 seconds following the addition of the camptothecin drugs to the liposome suspension. […] By varying the lipid concentration rather than varying the drug concentration, the problem of self-association phenomenon which occurs for camptothecin drugs concentrations in excess of 10 μM is avoided. Also, the well-known phenomenon known as inner filter effect which occurs using fluorescent material at high optical densities is a is avoided.

SMILES	overall association constant K, DMPC [1] [M⁻¹]	bound drug level, DMPC [1] [%]	binding affinity for liposomes (ranking) [1]	overall association constant K, DMPG [2] [M⁻¹]	bound drug level, DMPG [2] [%]	overall association constant K, DSPC [3] [M⁻¹]	binding preference for DSPC liposomes over DMPC liposomes ([3]; solid-phase DSPC over fluid-phase DMPC)	reduced propensity to bind electroneutral liposome membranes relative to CMC ([1]; DMPC)	reduced ability to bind negatively-charged liposome membranes relative to CMC ([2]; DMPG)	binding preference DMPG over DMPC ([2]; DMPG compared to DMPC)	binding preference for DSPC liposomes over DMPC liposomes ([3]; dspc over dmpc liposomes)
CCC1(O)C(=O)OCc2c1cc1n(c2=O)Cc2cc3c(Cl)c4c(cc3nc2-1)OCO4 (centres unmarked) [9-chloro-10,11-methylenedioxycamptothecin]	400	99	highest binding affinity for each type of liposome	320	99	500	–	–	–	–	–
CCC1(O)C(=O)OCc2c1cc1n(c2=O)Cc2cc3cc4c(cc3nc2-1)OCO4 (centres unmarked) [10,11-methylenedioxycamptothecin]	–	–	intermediate binding affinities	–	–	–	–	–	–	–	–
CCC1(O)C(=O)OCc2c1cc1n(c2=O)Cc2cc3cc(O)ccc3nc2-1 (centres unmarked) [10-hydroxycamptothecin]	75	–	–	75	–	–	–	–	–	–	–
CC[C@@]1(O)C(=O)OCc2c1cc1n(c2=O)Cc2cc3ccccc3nc2-1 [camptothecin]	–	97	intermediate binding affinities	–	97	300	3 -fold	–	–	–	–
CC[C@@]1(O)C(=O)OCc2c1cc1n(c2=O)Cc2cc3c(CN(C)C)c(O)ccc3nc2-1 [topotecan]	10	74	lowest binding affinity for liposomes	50	93	–	–	40 -fold	6 -fold	preferentially binds negatively charged DMPG liposomes as compared to DMPC liposomes; also recorded: strong binding preference for the negatively-charged lipid DMPG	5 -fold
